PMC8161391, “Synthesis of Novel Fluorinated Xanthine Derivatives with High Adenosine A2B Receptor Binding Affinity” (Pharmaceuticals, 2021)
Several values for one entry are separate records, joined by “and”; a condition that tells them apart may be missing. Equal values may be shown once. Read-outs that look alike come from different tables or passages of the source.

Legend:
[1] = target: T1, human adenosine A2B receptor (Homo sapiens, UniProt P29275); experiment: Competition binding assay, A2B receptor, radioligand [3H]PSB-603; conditions: vs [3H]PSB-603, mean ± SEM of three experiments
T1 construct: host or cells: CHO or HEK cells (membrane preparations)
T1 sequence (P29275 1-332): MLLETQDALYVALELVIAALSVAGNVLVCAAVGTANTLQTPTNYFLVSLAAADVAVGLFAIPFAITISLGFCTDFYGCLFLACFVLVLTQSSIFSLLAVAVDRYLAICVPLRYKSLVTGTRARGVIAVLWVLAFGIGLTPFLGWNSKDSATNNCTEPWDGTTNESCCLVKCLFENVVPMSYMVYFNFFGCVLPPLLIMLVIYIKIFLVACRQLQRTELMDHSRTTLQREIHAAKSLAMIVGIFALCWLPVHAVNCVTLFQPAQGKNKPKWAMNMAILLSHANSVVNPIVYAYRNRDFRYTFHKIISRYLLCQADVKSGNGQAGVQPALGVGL
Method: (§1) For the two novel fluorinated xanthine derivatives, the binding affinity towards the adenosine receptor subtypes A2B, A2A, A1, and A3 was determined in competition binding assays by incubation of the appropriate standard radioligand with membrane preparations of Chinese hamster ovary (CHO) and human embryonic kidney (HEK) cells, respectively, expressing the corresponding human receptor subtype (Table 2).
(§2) Membrane preparations of recombinant CHO or HEK cells expressing the respective human adenosine receptor subtype were obtained according to Borrman et al. or purchased from Perkin Elmer (Waltham, MA, USA). Radioligand binding assays for human A1, A2A, A2B, and A3 receptors were performed according to Alnouri et al.. The following radioligands were employed: [^3H]2-chloro-N^6-cyclopentyladenosine ([^3H]CCPA, 1 nM) for the A1 receptor, [^3H]3-(3-hydroxypropyl)-7-methyl-8-(m-methoxystyryl)-1-propargylxanthine ([^3H]MSX-2, 1 nM) for the A2A receptor, [^3H]8-(4-[4-(4-chlorophenyl)piperazine-1-sulfonyl]phenyl)-1-propyl-2,3,6,7-tetrahydro-1H-purine-2,6-dione ([^3H]PSB-603, 0.3 nM) for the A2B receptor, and [^3H](R)-8-ethyl-4-methyl-2-(phenyl)1,4,7,8-tetrahydro-5H-imidazo[2,1-i]purin-5-one ([^3H]PSB-11, 1 nM) for the A3 receptor. Three separate experiments were performed for determination of Ki values. All data were analyzed with GraphPad Prism, version 4.1 (GraphPad Inc., La Jolla, CA).

[2] = target: T2, human adenosine A2A receptor (Homo sapiens, UniProt P29274); experiment: Competition binding assay, A2A receptor, radioligand [3H]MSX-2; conditions: for Ki: human receptor, vs [3H]MSX-2, mean ± SEM of three experiments; for Selectivity Ratio Ki(Ax)/Ki(A2B) A2A/A2B: human receptors
T2 construct: host or cells: CHO or HEK cells (membrane preparations)
Method: as §1, §2

[3] = target: T3, human adenosine A1 receptor (Homo sapiens, UniProt P30542); experiment: Competition binding assay, A1 receptor, radioligand [3H]CCPA; conditions: for Ki: vs [3H]CCPA, mean ± SEM of three experiments; for Selectivity Ratio Ki(Ax)/Ki(A2B) A1/A2B: human receptors
T3 construct: host or cells: CHO or HEK cells (membrane preparations)
T3 sequence (P30542 1-326): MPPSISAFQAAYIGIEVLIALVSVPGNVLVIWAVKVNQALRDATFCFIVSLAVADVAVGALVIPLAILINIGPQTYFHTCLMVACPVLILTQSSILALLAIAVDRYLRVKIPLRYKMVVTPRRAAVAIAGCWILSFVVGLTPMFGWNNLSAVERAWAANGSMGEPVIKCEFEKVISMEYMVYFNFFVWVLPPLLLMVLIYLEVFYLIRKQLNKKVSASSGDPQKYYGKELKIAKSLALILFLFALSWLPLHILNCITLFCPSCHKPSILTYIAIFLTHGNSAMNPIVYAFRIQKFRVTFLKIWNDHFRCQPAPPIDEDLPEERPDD
Method: as §1, §2

[4] = target: T4, human adenosine A3 receptor (Homo sapiens, UniProt P0DMS8); experiment: Competition binding assay, A3 receptor, radioligand [3H]PSB-11; conditions: for inhibition at 1 µM / Ki: human receptor; for inhibition at 1 µM: at a concentration of 1 µM; for Ki: vs [3H]PSB-11, mean ± SEM of three experiments; for Selectivity Ratio Ki(Ax)/Ki(A2B) A3/A2B: human receptors
T4 construct: host or cells: CHO or HEK cells (membrane preparations)
T4 sequence (P0DMS8 1-318): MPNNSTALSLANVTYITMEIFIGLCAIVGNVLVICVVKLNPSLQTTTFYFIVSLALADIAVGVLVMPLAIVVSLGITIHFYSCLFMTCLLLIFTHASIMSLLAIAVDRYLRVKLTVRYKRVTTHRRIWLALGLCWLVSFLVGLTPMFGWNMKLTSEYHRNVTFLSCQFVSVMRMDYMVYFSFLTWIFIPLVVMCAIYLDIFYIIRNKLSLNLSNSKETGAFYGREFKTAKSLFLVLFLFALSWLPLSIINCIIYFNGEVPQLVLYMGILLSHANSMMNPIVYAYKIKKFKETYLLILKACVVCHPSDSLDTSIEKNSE
Method: as §1, §2

adenosine A2B receptor = conditions: cited from earlier work
[5] = cited from earlier work
[6] = set-up: method as in PMID 32366046; conditions: cited from earlier work
human A2B [7] = target: human A2B; set-up: method as in PMID 16759111; conditions: determined versus [3H]ZM214385; read-out: Ki (human A2B) ± SEM; cited from earlier work
adenosine A2A receptor [8] = experiment: Receptor binding with adenosine-receptor-expressing rat brain cortical membranes, A2A; conditions: rat A2A versus human A2B, from published Ki values
adenosine A1 receptor [9] = experiment: Receptor binding with adenosine-receptor-expressing rat brain cortical membranes, A1; conditions: rat A1 versus human A2B, from published Ki values
adenosine A2A receptor [10] = target: adenosine A2A receptor; set-up: method as in PMID 19569717, PMID 30835463, PMID 16821798; conditions: rat brain cortical membranes; cited from earlier work
adenosine A1 receptor [11] = target: adenosine A1 receptor; set-up: method as in PMID 19569717, PMID 30835463, PMID 16821798; conditions: rat brain cortical membranes; cited from earlier work
[12] = target: T2, human adenosine A2A receptor; set-up: method as in PMID 19569717, PMID 30835463, PMID 16821798; conditions: cited from earlier work
[13] = target: T3, human adenosine A1 receptor; set-up: method as in PMID 19569717, PMID 30835463, PMID 16821798; conditions: cited from earlier work
[14] = target: T4, human adenosine A3 receptor; set-up: method as in PMID 19569717, PMID 30835463, PMID 16821798; conditions: cited from earlier work; for % Inhibition of Radioligand Binding A3: at a concentration of 1 µM (as headed)
[15] = Organ distribution of [3H]PSB-603 in mice; assay type: in vivo, CD-1 mice; conditions: 3 min p.i.
Method: To estimate the ability of [^3H]PSB-603 to penetrate the BBB in vivo, an initial biodistribution study in healthy CD1 mice was performed.
All animal studies followed the international guidelines on animal care, and the study protocols were approved by the Landesdirektion Leipzig, the local authority for animal care (Reg.-Nr.: TVV 08/13; Reference number: 24-9168.11/18/8; approval date: 12 June 2013). Animal experiments were performed with female CD-1 mice, 10–12 weeks old, obtained from the Experimental Centre of the Faculty of Medicine (MEZ) at the Leipzig University, Leipzig, Germany.
[^3H]PSB-603 (specific activity 2.92 TBq/mmol, Pharmaron formerly Quotient Bioresearch (Radiochemicals) Ltd, Cardiff, UK; the precursor was synthesized at the University of Bonn, Germany) was dissolved in 100 µL of sterile isotonic saline and administered as a bolus injection via the tail vein of the restrained animal. At 3 min (n = 3; dose: […]), retro-orbital blood samples were obtained from the anesthetized animals. Immediately afterwards, organs of interest were isolated and blood plasma was obtained by centrifugation of the whole blood sample (15,000 rpm, room temperature, 1 min). All samples were weighed and dissolved in SOLVABLE (PerkinElmer Life and Analytical Sciences, Rodgau, Germany) for 5 h at 50 °C, overnight at 30 °C, and a further 5 h at 50 °C. By adding H2O2, decolorization of the samples was achieved. The samples were left to cool down to room temperature before the addition of 15 mL of Ultima Gold cocktail (PerkinElmer Life and Analytical Sciences, Rodgau, Germany). The samples were shaken overnight, and the radioactivity was measured in a Beckman Liquid Scintillation Counter LS 6500 (Beckman Coulter, Fullerton, CA, USA). For each sample, the percentage of the injected dose was calculated and normalized according to the tissue weight (% ID/g tissue), followed by normalization according to the injected dose and the weight of the animal [(% ID/g tissue)/(100%/g animal)] to calculate the standardized uptake value (SUV) for each tissue.

human A2B [16] = conditions: determined versus [3H]ZM214385 or [125I]IABOPX; read-out: Ki (human A2B) ± SEM; cited from earlier work
[17] = at a concentration of 1 µM (as headed)

T2 sequence (P29274 whole entry): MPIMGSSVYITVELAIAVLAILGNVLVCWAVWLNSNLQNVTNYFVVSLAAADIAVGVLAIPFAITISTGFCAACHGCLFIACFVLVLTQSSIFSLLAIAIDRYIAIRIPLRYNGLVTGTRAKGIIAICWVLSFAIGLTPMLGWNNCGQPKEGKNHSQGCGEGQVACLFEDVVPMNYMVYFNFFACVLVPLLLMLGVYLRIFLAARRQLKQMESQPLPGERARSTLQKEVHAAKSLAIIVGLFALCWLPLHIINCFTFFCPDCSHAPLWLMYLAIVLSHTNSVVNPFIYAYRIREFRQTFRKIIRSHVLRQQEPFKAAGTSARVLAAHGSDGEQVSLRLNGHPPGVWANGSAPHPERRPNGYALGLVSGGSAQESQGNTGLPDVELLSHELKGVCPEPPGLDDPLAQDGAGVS

CCCn1c(=O)[nH]c2nc(-c3ccc(S(=O)(=O)Nc4ccnc(F)c4)cc3)[nH]c2c1=O [Compound 5, 4-(2,6-Dioxo-1-propyl-2,3,6,7-tetrahydro-1H-purin-8-yl)-N-(2-fluoropyridin-4-yl)benzenesulfonamide]
Ki [1]: 9.97 ± 0.86 nM
Ki [2]: 375 ± 53 nM
Selectivity Ratio Ki(Ax)/Ki(A2B) A2A/A2B [2]: 38
Ki ([3]; human receptor): 255 ± 32 nM
Selectivity Ratio Ki(Ax)/Ki(A2B) A1/A2B [3]: 25
inhibition at 1 µM [4]: 45%
Ki [4]: ~1000 nM

O=c1[nH]c(=O)c2cc(-c3ccnc([18F])c3)c(-c3ccco3)nc2[nH]1 [Compound 3]
affinity towards the A2B receptor (in words) (adenosine A2B receptor): good affinity
in vivo stability (in words) ([5]; compared to 2): considerably improved in vivo stability
brain uptake (in words) [6]: rather low

Cn1c(=O)c2[nH]c(-c3cnn(Cc4cccc(C(F)(F)F)c4)c3)nc2n(C)c1=O [CVT-6975]
Ki (human A2B [7]): 1 nM

CCCn1c(=O)[nH]c2nc(-c3ccc(S(=O)(=O)N4CCC(F)CC4)cc3)[nH]c2c1=O [Compound 6, 8-(4-((4-Fluoropiperidin-1-yl)sulfonyl)phenyl)-1-propyl-3,7-dihydro-1H-purine-2,6-dione]
Ki [1]: 12.3 ± 3.6 nM
Ki [2]: 158 ± 28 nM
Selectivity Ratio Ki(Ax)/Ki(A2B) A2A/A2B [2]: 13
inhibition at 1 µM ([3]; human receptor, at a concentration of 1 µM): 44%
Ki ([3]; human receptor): ~1000 nM
Selectivity Ratio Ki(Ax)/Ki(A2B) A1/A2B [3]: 81
inhibition at 1 µM [4]: 38%
Ki [4]: > 1000 nM
Selectivity Ratio Ki(Ax)/Ki(A2B) A3/A2B [4]: >81

CCCn1c(=O)[nH]c2nc(-c3ccc(S(=O)(=O)N4CCCCC4)cc3)[nH]c2c1=O [Compound 8]
Selectivity Ratio Ki(Ax)/Ki(A2B) A3/A2B [4]: 7
Selectivity Ratio Ki(Ax)/Ki(A2B) A2A/A2B (adenosine A2A receptor [8]): 35
Selectivity Ratio Ki(Ax)/Ki(A2B) A1/A2B (adenosine A1 receptor [9]): 4
Ki (adenosine A2A receptor [10]): 714 ± 122 nM
Ki (adenosine A1 receptor [11]): 91.1 ± 25 nM

O=C(Nc1cnc(-c2ccnc([18F])c2)c(-c2ccccc2F)n1)C1CC1 [Compound 2]
affinity towards the adenosine A2B receptor (in words) (adenosine A2B receptor): good affinity
metabolic degradation in vivo (in words) ([5]; metabolism studies in mice): rapid metabolic degradation

CCCn1c(=O)[nH]c2nc(-c3ccc(S(=O)(=O)N4CCN(c5ccc(Cl)cc5)CC4)cc3)[nH]c2c1=O [PSB-603, 8-(4-[4-(4-chlorophenyl)piperazine-1-sulfonyl]phenyl)-1-propyl-2,3,6,7-tetrahydro-1H-purine-2,6-dione]
Selectivity Ratio Ki(Ax)/Ki(A2B) A2A/A2B [2]: >18,000
Selectivity Ratio Ki(Ax)/Ki(A2B) A1/A2B [3]: >18,000
Selectivity Ratio Ki(Ax)/Ki(A2B) A3/A2B [4]: >18,000
% Inhibition of Radioligand Binding A2A [12, 17]: 7 ± 14%
Ki [12]: > 10000 nM
% Inhibition of Radioligand Binding A1 [13, 17]: 10 ± 3%
Ki [13]: > 10000 nM
% Inhibition of Radioligand Binding A3 [14]: 10 ± 15%
Ki [14]: > 10000 nM

[^3H]8-(4-[4-(4-chlorophenyl)piperazine-1-sulfonyl]phenyl)-1-propyl-2,3,6,7-tetrahydro-1H-purine-2,6-dione [[^3H]PSB-603]
uptake in the bladder, appendix, and lung ([15]; mice): low to moderate
uptake in the liver ([15]; mice): high
uptake in the pituitary gland ([15]; mice): moderate
standardized uptake value (SUV) in brain ([15]; mouse brain, i.v., n = 3): 0.21 ± 0.07 and 0.2

CCCn1c(=O)c2[nH]c(-c3ccc(OCC(=O)Nc4ccc(C#N)cc4)cc3)nc2n(CCC)c1=O [MRS-1754]
Ki (human A2B [16]): 1.97 ± 0.31 nM

[11CH3]n1nc(-c2ccccc2)c(=O)n2c3ccccc3nc12 [Compound 1]
IC50 (adenosine A2B receptor): 210 ± 12.3 nM

CCCn1c(=O)[nH]c2nc(-c3ccc(S(=O)(=O)Nc4ccccc4)cc3)[nH]c2c1=O [Compound 7]
Selectivity Ratio Ki(Ax)/Ki(A2B) A3/A2B [4]: >32
Selectivity Ratio Ki(Ax)/Ki(A2B) A2A/A2B (adenosine A2A receptor [8]): 0.7
Selectivity Ratio Ki(Ax)/Ki(A2B) A1/A2B (adenosine A1 receptor [9]): 0.06
% Inhibition of Radioligand Binding A3 [14]: 48%
Ki [14]: > 1000 nM
Ki (adenosine A2A receptor [10]): 23 ± 13 nM
Ki (adenosine A1 receptor [11]): 1.8 ± 1 nM
